Test results taken from US6455727B1, “Process for preparing carbetapentane tannate” (Jame Fine Chemicals, Inc., priority 2001, dated 2002).
Counter-ions that a name gives are not always drawn. Like-named read-outs stand apart in the source and are kept apart here.

Experiments:
[1] = background statement, cited from earlier work; for solubility in alcohol: alcohol(s)
[2] = solubility in water, alcohols and methylene chloride; type: physicochemical; settings: description of product and starting materials

solubility in alcohols [2]	solubility in methylene chloride [2]	solubility in water [2]	Molecule	solubility in alcohol [1]	solubility in water [1]
–	–	–	CCN(CC)CCOCCOC(=O)C1(c2ccccc2)CCCC1 [carbetapentane citrate]	slightly soluble	freely soluble
soluble	insoluble	slightly soluble	carbetapentane tannate	–	–
soluble	insoluble	soluble	O=C(OC[C@H]1O[C@@H](OC(=O)c2cc(O)c(O)c(OC(=O)c3cc(O)c(O)c(O)c3)c2)[C@H](OC(=O)c2cc(O)c(O)c(OC(=O)c3cc(O)c(O)c(O)c3)c2)[C@@H](OC(=O)c2cc(O)c(O)c(OC(=O)c3cc(O)c(O)c(O)c3)c2)[C@@H]1OC(=O)c1cc(O)c(O)c(OC(=O)c2cc(O)c(O)c(O)c2)c1)c1cc(O)c(O)c(OC(=O)c2cc(O)c(O)c(O)c2)c1 [tannic acid]	highly soluble	highly soluble
soluble	soluble	insoluble	CCN(CC)CCOCCOC(=O)C1(c2ccccc2)CCCC1 [carbetapentane, 2-(diethylaminoethoxy)ethyl-1-phenyl-1-cyclopentanecarboxylate]	–	insolubility
